From paper PMC12525688, “Anti-Helicobacter pylori Activity and Gastroprotective Effects of Diacetylcurcumin and Four Metal Derivatives” (Molecules, 2025)
Read-outs that look alike come from different tables or passages of the source.

Key:
[1] = molecular target: T1, Helicobacter pylori urease (Helicobacter pylori, UniProt P69996); experiment: Berthelot colorimetric urease activity assay with lysate supernatant (partially purified urease); assay type: biochemical
T1 construct: gene ureB; native urease from supernatant of sonicated H. pylori ATCC 43504; with urease subunit alpha (UreA)

E. coli DNA gyrase = molecular target: T2, E. coli DNA gyrase (Escherichia coli, UniProt P0AES4+P0AES6); experiment: DNA supercoiling assay (agarose gel), […] inhibition at […]; assay type: biochemical
T2 construct: gene gyrA; DNA gyrase of the TopoGEN E. coli DNA Gyrase Drug Screening kit; with DNA gyrase subunit B (GyrB)
T2 sequence (P0AES4 2-875, one chain of several): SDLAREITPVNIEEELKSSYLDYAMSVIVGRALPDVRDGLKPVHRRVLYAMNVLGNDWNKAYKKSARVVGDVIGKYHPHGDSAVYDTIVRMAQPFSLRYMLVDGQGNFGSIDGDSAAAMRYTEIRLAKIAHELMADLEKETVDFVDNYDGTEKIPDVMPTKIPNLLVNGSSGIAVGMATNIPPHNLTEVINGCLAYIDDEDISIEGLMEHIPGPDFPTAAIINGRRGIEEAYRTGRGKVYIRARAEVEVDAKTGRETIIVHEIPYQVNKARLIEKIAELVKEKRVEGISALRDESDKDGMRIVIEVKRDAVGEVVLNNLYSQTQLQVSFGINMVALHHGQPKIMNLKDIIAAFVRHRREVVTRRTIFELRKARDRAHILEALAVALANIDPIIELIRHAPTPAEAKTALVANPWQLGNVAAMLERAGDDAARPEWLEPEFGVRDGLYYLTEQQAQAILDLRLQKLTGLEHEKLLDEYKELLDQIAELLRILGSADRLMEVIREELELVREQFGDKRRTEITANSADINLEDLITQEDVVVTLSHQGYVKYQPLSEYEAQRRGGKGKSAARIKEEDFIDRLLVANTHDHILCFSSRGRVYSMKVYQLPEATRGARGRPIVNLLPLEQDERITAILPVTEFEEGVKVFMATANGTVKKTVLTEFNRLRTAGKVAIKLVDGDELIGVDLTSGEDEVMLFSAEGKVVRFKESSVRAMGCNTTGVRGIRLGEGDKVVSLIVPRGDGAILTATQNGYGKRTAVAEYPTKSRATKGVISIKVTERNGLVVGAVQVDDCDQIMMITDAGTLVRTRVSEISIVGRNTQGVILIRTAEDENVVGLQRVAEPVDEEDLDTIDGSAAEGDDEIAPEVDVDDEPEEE

T1 sequence (P14916 whole entry): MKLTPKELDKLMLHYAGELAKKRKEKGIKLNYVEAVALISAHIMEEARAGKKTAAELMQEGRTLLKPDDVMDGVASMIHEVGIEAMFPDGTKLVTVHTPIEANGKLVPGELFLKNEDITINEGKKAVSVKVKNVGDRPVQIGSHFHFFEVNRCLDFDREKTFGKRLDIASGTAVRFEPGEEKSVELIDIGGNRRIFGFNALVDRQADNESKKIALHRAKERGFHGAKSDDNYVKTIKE
T1 sequence (P69996 whole entry): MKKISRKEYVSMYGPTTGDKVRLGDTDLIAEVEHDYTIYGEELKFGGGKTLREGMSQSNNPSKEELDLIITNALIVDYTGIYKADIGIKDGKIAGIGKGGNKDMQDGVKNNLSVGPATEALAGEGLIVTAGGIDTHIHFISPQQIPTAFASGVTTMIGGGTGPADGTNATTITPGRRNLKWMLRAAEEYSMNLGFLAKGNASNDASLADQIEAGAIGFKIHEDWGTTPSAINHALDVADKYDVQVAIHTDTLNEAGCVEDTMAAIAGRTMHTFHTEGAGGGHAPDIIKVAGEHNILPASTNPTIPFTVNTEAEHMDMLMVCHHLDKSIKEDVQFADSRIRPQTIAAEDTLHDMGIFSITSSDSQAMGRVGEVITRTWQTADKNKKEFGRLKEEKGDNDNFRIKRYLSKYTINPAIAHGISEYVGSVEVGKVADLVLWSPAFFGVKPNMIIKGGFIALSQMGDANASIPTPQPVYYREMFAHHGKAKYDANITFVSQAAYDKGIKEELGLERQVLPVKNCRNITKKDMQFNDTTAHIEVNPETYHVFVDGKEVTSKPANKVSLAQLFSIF

| SMILES | IC50 [1] [µM] | also measured |
| --- | --- | --- |
| CC(=O)NO [AHA, acetohydroxamic acid] |  | IC50 ([1]; read-out: IC50): 488 µM |
| COc1cc(/C=C/C(=O)C=C(/C=C/c2ccc(OC(C)=O)c(OC)c2)[O][Cu][O]C(=CC(=O)/C=C/c2ccc(OC(C)=O)c(OC)c2)/C=C/c2ccc(OC(C)=O)c(OC)c2)ccc1OC(C)=O [DAC2-Cu] | 20.4 |  |
| COc1cc(/C=C/C(=O)C=C(/C=C/c2ccc(OC(C)=O)c(OC)c2)[O][Zn][O]C(=CC(=O)/C=C/c2ccc(OC(C)=O)c(OC)c2)/C=C/c2ccc(OC(C)=O)c(OC)c2)ccc1OC(C)=O [DAC2-Zn] | 12.4 |  |
| O=C(O)c1cn(C2CC2)c2cc(N3CCNCC3)c(F)cc2c1=O [ciprofloxacin] |  | inhibition at 3 µM (E. coli DNA gyrase): 100% |
